Here are results for 2 compounds from patent US20240252546A1, “NEURITE OUTGROWTH PROMOTION KIT AND USE THEREFOR” (KEIO UNIVERSITY, priority 2021, published 2024).

For experiment [1], the system named is phosphorylated p38. Briefly: Effect of RK-682 on phosphorylation of p38 (Experimental Example 9). The experiment is classed as cell-based, human. The following applies: 201B7 neurospheres; 20 μM RK-682, 24 hours; vs control. The method, then: (§1) Neurospheres derived from 201B7 cells, which are cells of a human iPS cell line, were prepared in the same manner as in Experimental Example 1. Subsequently, the neurospheres were cultured for 24 hours in the presence of RK-682 at a final concentration of 20 μM. In addition, as a control, a group to which RK-682 was not added was also prepared. Subsequently, each neurosphere was fixed with paraformaldehyde and subjected to immunostaining of each of the phosphorylated p38 and the phosphorylated CDC25B.

The test system of experiment [2] is phosphorylated CDC25B. Nature of the experiment: Effect of RK-682 on phosphorylation of CDC25B (Experimental Example 9). The experiment is classed as cell-based, human. Conditions: 201B7 neurospheres; 20 μM RK-682, 24 hours; vs control. As to the method: as §1
Experiment [3] concerns nerve cells induced from neurospheres derived from 201B7 cells. Nature of the experiment: Effect of RK-682 on neurite outgrowth (Experimental Example 10). It is filed as cell-based, human. Conditions: 201B7 neurospheres; 20 μM RK-682, 24 hours, differentiated 14 days; vs control. As to the method:
Neurospheres derived from 201B7 cells, which are cells of a human iPS cell line, were prepared in the same manner as in Experimental Example 1. Subsequently, the neurospheres were cultured for 24 hours in the presence of RK-682 at a final concentration of 20 μM. In addition, as a control, a group to which RK-682 was not added was also prepared.
(§2) Subsequently, each neurosphere was seeded on a 48-well chamber slide (IWAKI & CO., LTD.) coated with poly-L-ornithine/fibronectin, cultured for 14 days in a culture medium containing no growth factor at 37° C. in an environment of 95% air and 5% CO2, and differentiated into nerve cells.
Subsequently, each of the obtained nerve cells was fixed with 4% paraformaldehyde in 0.1 M PBS, and each of βIII-tubulin which is a nerve cell marker, and the Tau protein which is frequently distributed in axons, was immunostained, and the length of the neurite was measured.

In experiment [4] the target is T1, CDC25B (Homo sapiens, UniProt P30305).
T1 sequence (P30305 1-580): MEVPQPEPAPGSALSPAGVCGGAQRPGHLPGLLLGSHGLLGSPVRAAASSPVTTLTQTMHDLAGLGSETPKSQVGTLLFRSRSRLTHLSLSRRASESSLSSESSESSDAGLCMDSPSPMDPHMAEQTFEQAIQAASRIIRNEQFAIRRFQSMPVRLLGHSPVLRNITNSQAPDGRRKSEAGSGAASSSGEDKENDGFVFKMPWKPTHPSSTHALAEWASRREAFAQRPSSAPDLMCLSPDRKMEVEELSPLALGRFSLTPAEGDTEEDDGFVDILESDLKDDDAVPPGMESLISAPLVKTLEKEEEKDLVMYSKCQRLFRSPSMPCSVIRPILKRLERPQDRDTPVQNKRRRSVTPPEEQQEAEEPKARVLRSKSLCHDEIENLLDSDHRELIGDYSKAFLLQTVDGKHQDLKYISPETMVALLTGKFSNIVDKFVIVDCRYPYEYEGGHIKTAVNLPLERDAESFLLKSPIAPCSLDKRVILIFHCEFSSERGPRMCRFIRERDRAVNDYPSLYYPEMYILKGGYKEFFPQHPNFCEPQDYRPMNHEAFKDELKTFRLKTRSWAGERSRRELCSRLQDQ
Conditions: "it is said"; cited from earlier work.

The test system of experiment [5] is phosphorylated CDC25B. Nature of the experiment: Effect of addition of SB203580 on phosphorylation of CDC25B (Experimental Example 6). It is filed as cell-based, human. The method, then: (§3) Neurospheres derived from 201B7 cells, which are cells of a human iPS cell line, were prepared in the same manner as in Experimental Example 1. Subsequently, each neurosphere was cultured for 24 hours in the presence of each of DAPT and Compound 34. DAPT and Compound 34 were used at the same concentrations as in Experimental Example 1. In addition, in this case, SB203580 (CAS number: 152121-47-6), which is a p38 inhibitor, was added to the culture medium at a final concentration of 20 μM. In addition, a group to which SB203580 had not been added was also prepared as a control.
Subsequently, each neurosphere was fixed with paraformaldehyde and subjected to immunostaining of phosphorylated CDC25B.
In FIG. 12(c), “DAPT” indicates it is the result obtained from the control into which the DAPT treatment has been carried out in the absence of SB203580, and “DAPT+SB203580” indicates it is the result obtained by carrying out the DAPT treatment in the presence of SB203580.

Experiment [6] deals with nerve cells induced from neurospheres derived from 201B7 cells. Briefly: Effect of addition of SB203580 on neurite outgrowth (Experimental Example 7). The experiment is classed as cell-based, human. The following applies: differentiated 14 days. The method, then:
as §3, §2
Subsequently, each of the obtained nerve cells was fixed with 4% paraformaldehyde in 0.1 M PBS, and each of βIII-tubulin which is a nerve cell marker, and the Tau protein which is frequently distributed in axons, was immunostained, and the length of the neurite was measured. […]

[7] abbreviates: 20 μM SB203580 during Compound 34 treatment (1 μM, 24 hours), vs without SB203580.
Where [8] appears, read: 20 μM SB203580 during DAPT treatment (10 μM, 24 hours), vs DAPT without SB203580.

Consider `CCCCCCCCCCCCCCCC(=O)C1=C(O)[C@@H](CO)OC1=O` [RK-682], for which the “amount of phosphorylated p38 in the neurosphere” value in experiment [1] is “significantly increased”. Also, the “amount of phosphorylated CDC25B in the neurosphere” value in experiment [2] is on record as “significantly increased”. Further, in experiment [3], the “neurite outgrowth (neurite length), βIII-tubulin immunostaining” value is listed as “significantly promoted” and the “neurite outgrowth, Tau protein immunostaining” value is “significantly promoted”. Besides, the “dephosphorylation inhibitory effect on CDC25B” value in experiment [4] is reported as “does not have a dephosphorylation inhibitory effect”.

Regarding `C[S+]([O-])c1ccc(-c2nc(-c3ccncc3)c(-c3ccc(F)cc3)[nH]2)cc1` (stereo not drawn) [SB203580], the “increase in the amount of phosphorylated CDC25B in the neurosphere” value in experiment [5] (setting [7]) and in experiment [5] (setting [8]) was “significantly suppressed” throughout. For the same compound, the “neurite outgrowth (neurite length)” value in experiment [6] (setting [7]) and in experiment [6] (setting [8]) was “significantly suppressed” each time.
